For two molecules, relative specific activity and Kd results are on record in article PMC12713023, “CDH1 Orchestrates Anabolic Events to Promote Cell Cycle Initiation” (Advanced Science, 2025).

One assay deals with T1, CPT2 (Homo sapiens, UniProt P23786).
T1 sequence (P23786 26-658): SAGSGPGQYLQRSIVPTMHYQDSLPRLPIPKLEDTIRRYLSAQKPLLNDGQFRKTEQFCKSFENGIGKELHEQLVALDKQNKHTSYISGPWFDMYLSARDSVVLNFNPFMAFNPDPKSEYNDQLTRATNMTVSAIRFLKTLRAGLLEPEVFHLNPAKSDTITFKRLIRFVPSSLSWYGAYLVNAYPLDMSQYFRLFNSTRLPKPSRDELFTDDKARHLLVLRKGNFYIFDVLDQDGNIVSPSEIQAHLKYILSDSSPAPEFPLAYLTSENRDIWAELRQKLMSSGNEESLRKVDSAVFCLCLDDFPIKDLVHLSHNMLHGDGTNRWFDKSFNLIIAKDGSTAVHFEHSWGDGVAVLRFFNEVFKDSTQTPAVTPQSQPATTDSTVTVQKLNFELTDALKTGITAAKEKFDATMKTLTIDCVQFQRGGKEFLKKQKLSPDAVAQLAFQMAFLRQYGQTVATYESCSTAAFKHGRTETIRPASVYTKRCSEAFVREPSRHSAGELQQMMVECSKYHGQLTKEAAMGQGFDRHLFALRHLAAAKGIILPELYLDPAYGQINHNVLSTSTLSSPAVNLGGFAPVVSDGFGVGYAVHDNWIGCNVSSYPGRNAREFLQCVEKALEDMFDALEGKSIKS
As to the kind of experiment: CoA consumption, DTNB at […] nm. It is filed as biochemical. Particulars: 2 mM CoA, 2 mM palmitoyl-L-carnitine, pH 7.5, 37 °C.

Assay [1] addresses T2, TKTL1 (transketolase-like-1) (Homo sapiens, UniProt P51854).
T2 construct: CDS in pET-22b(+), His-tagged, E. coli BL21(DE3), Ni-NTA; tag kept (captured on anti-His biosensors)
T2 sequence (P51854 1-596): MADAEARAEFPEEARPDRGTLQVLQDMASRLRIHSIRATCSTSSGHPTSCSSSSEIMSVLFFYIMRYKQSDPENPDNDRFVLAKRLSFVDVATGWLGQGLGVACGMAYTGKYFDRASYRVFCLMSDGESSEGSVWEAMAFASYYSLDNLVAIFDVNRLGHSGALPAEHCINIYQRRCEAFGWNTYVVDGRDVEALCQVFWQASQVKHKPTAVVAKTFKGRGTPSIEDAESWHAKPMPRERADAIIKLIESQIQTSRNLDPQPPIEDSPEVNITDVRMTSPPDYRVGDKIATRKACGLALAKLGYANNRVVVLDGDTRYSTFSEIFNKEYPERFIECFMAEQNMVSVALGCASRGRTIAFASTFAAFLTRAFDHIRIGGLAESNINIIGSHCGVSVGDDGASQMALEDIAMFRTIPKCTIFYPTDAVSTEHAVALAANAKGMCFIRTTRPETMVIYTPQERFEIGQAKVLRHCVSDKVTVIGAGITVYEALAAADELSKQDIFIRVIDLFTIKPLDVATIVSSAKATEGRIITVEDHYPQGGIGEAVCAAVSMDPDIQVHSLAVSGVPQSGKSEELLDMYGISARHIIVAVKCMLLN
As to the kind of experiment: biolayer interferometry, His-tagged protein on anti-His biosensors, […] fit. Format: binding. Particulars: PBST, 30 °C, 0.82-200 µM ligand; KD = kd/ka.

With `CC(C)(COP(=O)(O)OP(=O)(O)OC[C@H]1O[C@@H](n2cnc3c(N)ncnc32)[C@H](O)[C@@H]1OP(=O)(O)O)[C@@H](O)C(=O)NCCC(=O)NCCS` [CoA], the relative specific activity result at CPT2 is on record as “CPT2 activity was assayed by measuring the decrease in CoA levels”.

As to `O=S(=O)(O)OC[C@H]1OC(O)[C@H](O)[C@@H]1O` (some centres unmarked) [R5S], in assay [1], the Kd turned out to be 8.58 µM.
